Measured values taken from Sander's compilation of Henry's law constants (doi:10.1111/j.1365-2621.1980.tb00916.x).

Test: Henry solubility constant Hcp at 298.15 K (mol/(m3 Pa))
Settings: reference: Mazza (1980)

SMILES | Henry solubility constant Hcp
C=CCSSCC=C [4,5-dithia-1,7-octadiene] | 0.0075
C=CCSCC=C [3,3'-thiobis-1-propene] | 0.0071
Cc1ccc(C)s1 [2,5-dimethylthiophene] | 0.0037
CCCS [1-propanethiol] | 0.0009
CC(C)O [2-propanol] | 2.1

Other lines, results leading:

Henry solubility constant Hcp | SMILES
0.005 | C=CCSC [allyl methyl sulfide]
0.0043 | CCCSC [methyl propyl sulfide]
3.7 | CCCO [1-propanol]
0.018 | CCCSSCCC [dipropyl disulfide]
6.2 | CCO [ethanol]
